In US20260216179A1, “1,5-NAPHTHYRIDINE DERIVATIVES AS KRAS ONCOPROTEIN INHIBITORS” (Beta Pharma, Inc., priority 2022, published 2026):
pIC50: −log10 of the molar value. Where two headings read alike, the source gives them in different places.

Key:
KRAS G12C [1] = biological target: T1, KRAS G12C (Homo sapiens, UniProt P01116, G12C); assay: NanoBRET target engagement cellular assay in transiently transfected HEK293 cells; type: cell-based; design: expressed in transfected cells; host or cells: HEK293, transiently transfected; settings: RAS tracer K2 1 μM, 2 hours at 37° C.
Protocol: KRAS G12C cellular activity was determined in a target engagement cellular assay (NanoBRET™) in transiently transfected HEK293 cells by Reaction Biology Corporation (RBC), 1 Great Valley Parkway, Suite 2 Malvern, PA 19355, USA. HEK293 were cultivated to 70-80% confluence prior to the assay followed by trypsinizing and collection of the cells. BI-2852 was used as the KRAS G12C reference compound. Each test compound solution was delivered from a compound source plate to the wells of 384-well white non-binding surface plate by an Echo 550 prior to the assay.
A 10 μg/mL solution of DNA in Opti-MEM was prepared without serum that consisted of 1 μg LgBiT®-KRAS (G12C)-NanoLuc fusion vector, 1 μg SmBIT®-KRAS (G12C)-NanoLuc fusion vector and 8 μg transfection carrier DNA. This mixture was subsequently treated with 30 μL of FuGENE HD Transfection Reagent into each milliliter of DNA mixture to form a lipid: DNA complex. The resulting mixture was then gently mixed by inversion and incubated at ambient temperature for 20 minutes to allow complexes to form. A mixture of 1 part of lipid: DNA complex with 20 parts of suspended HEK293 cells was added to a sterile conical tube and mixed gently by inversion. The cells+lipid: DNA complex mixture was then added to a sterile tissue culture dish and incubated for 24 hours. The medium was removed from the dish via aspiration followed by trypsinizing and allowing the cells to dissociate from the tissue culture dish. The trypsin was subsequently neutralized by using medium containing serum and centrifugation at 200×g for 5 minutes to pellet the cells in the conical tube. The cell density was adjusted to 2×10^5 cells/mL in Opti-MEM without phenol red. One part of Complete 20× NanoBRET™ RAS Tracer Reagent was dispensed to 20 parts of cells in the conical tube and mixed gently by inversion. The resulting cell suspension was dispensed into a white, 384-well NBS plate containing the test compounds (starting at 10 μM, 10-dose with 3-fold dilution) at 37° C., 5% CO2 for 2 hours. The final concentration for RAS tracer K2 was 1 μM. […]
Freshly prepared substrate solution (3×) in the assay medium was added to each well of the 384-well NBS plate and incubated for 3 minutes at room temperature. The donor emission wavelength (460 nm) and acceptor emission wavelength (600 nm) were measured using an Envision 2104 plate reader. […] The BRET ratio was calculated using the following equation: BRET Ratio= [(Acceptor sample÷Donor sample)−(Acceptor no-tracer control[…]Donor no-tracer control)]. The normalized BRET response (%) was calculated by the following equation: (BRET ratio of test compound/BRET ratio of DMSO control)*100%. The IC50 curves were plotted and IC50 values were calculated with GraphPad Prism 4 based on a sigmoidal dose-response equation.
Target sequence in this assay (P01116 1-186 isoform P01116-2 G12C limits assumed): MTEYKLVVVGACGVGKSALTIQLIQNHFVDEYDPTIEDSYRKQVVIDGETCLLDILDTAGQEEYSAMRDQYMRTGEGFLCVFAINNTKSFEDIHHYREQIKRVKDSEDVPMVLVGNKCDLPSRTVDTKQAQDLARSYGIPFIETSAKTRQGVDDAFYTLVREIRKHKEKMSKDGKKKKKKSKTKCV
Target sequence in this assay (P01116 1-186 isoform P01116-2 G12C limits assumed): as above

KRAS G12C [2] = biological target: T1, KRAS G12C; assay: KRAS G12C/SOS1 nucleotide exchange assay (Bodipy-GDP to GTP exchange); type: biochemical; design: KRAS G12C or KRAS G12D (aa 2-169, expressed in E. coli); His-tag (TEV cleavable) (N); purchased Reaction Biology Corporation (RBC), which ran the assay MSC-11-502 (SOS1 only; none given for KRAS); host or cells: E. coli; settings: SOS1-mediated Bodipy-GDP/KRAS G12C exchange; dRFU analysis method for covalent inhibitors; 30 min pre-incubation at RT; 0.5% DMSO
Protocol: (§1) The biological activity of the Examples was determined in a KRAS
(§2) The assay evaluates the SOS1-mediated Bodipy-GDP to GTP exchange observed with KRAS G12C and KRAS G12D.
(§3) Reaction Buffer: 40 mM HEPES 7.4, 10 mM MgCl2, 1 mM DTT 0.002% Triton X100, 0.5% DMSO.
(§4) • 1. Deliver 10 μL of 1.5× KRAS solution in freshly prepared reaction buffer to reaction wells. • 2. Deliver compounds in 100% DMSO into buffer using acoustic technology (Echo550; nanoliter range). • 3. Incubate compounds with KRAS for 30 minutes at room temperature. • 4. Prepare 3× (SOS1+GTP) solution in reaction buffer. • 5. Deliver 5 μL of SOS1+GTP solution into reactions wells (deliver GTP only to column 1 for no SOS1 control). • 6.
Data Analysis: The fluorescence data was normalized using the equation below and fitted to “one phase exponential decay” equation using GraphPad prism software. The plateau was fixed to zero (use for non-covalent inhibitors) and rate ×1000 was used to calculate the IC50 values.
(§5) where Yraw is defined as fluorescence at time t, Ao is the average initial fluorescence with no SOS1, and Mis the minimum fluorescence at the end of the reaction at the maximum SOS1.
The background subtracted signals (no SOS1 protein wells were used as background) were converted to % activity relative to DMSO controls. Data was analyzed using GraphPad Prism 4 with “sigmoidal dose-response (variable slope)”; 4 parameters with Hill Slope. The constraints were bottom (constant equal to 0) and top (must be less than 120).
Target sequence in this assay (P01116 2-169 G12C): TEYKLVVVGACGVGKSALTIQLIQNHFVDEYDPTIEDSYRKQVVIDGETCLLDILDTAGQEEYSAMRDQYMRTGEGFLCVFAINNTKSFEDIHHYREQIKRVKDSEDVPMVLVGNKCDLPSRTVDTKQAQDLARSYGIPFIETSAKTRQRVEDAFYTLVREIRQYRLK

KRAS G12D = biological target: T2, KRAS G12D (Homo sapiens, UniProt P01116, G12D); assay: KRAS G12D/SOS1 nucleotide exchange assay (Bodipy-GDP to GTP exchange); type: biochemical; settings: SOS1-mediated Bodipy-GDP/KRAS G12D exchange; rate constant method (plateau = 0) for reversible inhibitors; 30 min pre-incubation at RT; 0.5% DMSO
T2 construct: KRAS G12C or KRAS G12D (aa 2-169, expressed in E. coli); His-tag (TEV cleavable) (N); purchased Reaction Biology Corporation (RBC), which ran the assay MSC-11-502 (SOS1 only; none given for KRAS); host or cells: E. coli
T2 sequence (P01116 2-169 G12D): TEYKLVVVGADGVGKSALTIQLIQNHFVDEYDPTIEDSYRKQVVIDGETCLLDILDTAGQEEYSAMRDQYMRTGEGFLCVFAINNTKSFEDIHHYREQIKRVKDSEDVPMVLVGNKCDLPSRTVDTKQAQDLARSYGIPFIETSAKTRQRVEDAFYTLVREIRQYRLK
Protocol: as §1, §2
The compound pre-incubation time was 30 min at RT and the curve fits were performed when the activities at the highest concentration of compounds were less than 65%.
as §3
as §4, with “Deliver 5 μL of SOS1+GTP solution into reactions wells (deliver GTP only to column 1 for no SOS1 control). • 6.” left out
Data Analysis: The fluorescence data was normalized using the equation below and fitted to “one phase exponential decay” equation using GraphPad prism software. […]
as §5
The background subtracted signals (no SOS1 protein wells were used as background) were converted to % activity relative to DMSO controls. Data was analyzed using GraphPad Prism 4 with “sigmoidal dose-response (variable slope)”; 4 parameters with Hill Slope. […]

MIA PaCa-2 cells = assay: CellTiter-Glo viability assay; type: cell-based; settings: Homo sapiens, 72 hours, read-out: CTG Assay IC50 Values
Protocol: The reference compound staurosporine was purchased from Sigma-Aldrich (Saint Louis, MI). CellTiter-Glo® 2.0 Luminescent cell viability assay reagent was purchased from Promega (Madison, WI). MIA PaCa-2 cell line was purchased from American Type Culture Collection (Manassas, VA). MIA PaCa-2 cells were cultured in DMEM containing 10% FBS, 2.5% horse serum, 100 μg/ml of penicillin and 100 μg/ml of streptomycin. Cultures were maintained at 37° C. in a humidified atmosphere of 5% CO2 and 95% air.
Test compounds and reference compound, staurosporine, were diluted in DMSO solution with 10-dose and 3-fold dilution in a source plate starting at 10 mM. • 2. 25 nL of test compounds or 25 nL of staurosporine was delivered from the source plate to each well of the 384-well cell culture plate by Echo 550. • 3. 25 μL of culture media containing 2000 cells was added to each of the wells of the cell culture plate in duplicate. • 4. The cells were incubated with the compounds at 37° C., 5% CO2 for 72 hours. • 5. […] Luminescence was recorded by Envision 2104 Multilabel Reader (PerkinElmer, Santa Clara, CA). The number of viable cells in culture was determined based on quantitation of the ATP present in each culture well. • 8. The IC50 curves were plotted and IC50 values were calculated using the GraphPad Prism 4 program based on a sigmoidal dose-response equation

[3] = PK profile in male CD1 mice; type: in vivo; settings: for MRT inf: read-out: MRT0-inf; for MRT last: read-out: MRT0-last
Source text: PK Profile in male CD1 mice:

[4] = 3 mg/kg, i.v., single dose, mean plasma
[5] = 30 mg/kg, p.o., single dose, mean plasma
[6] = mouse, iv, 3 mg/kg, i.v., single dose, mean plasma
[7] = mouse, iv, 3 mg/kg, single dose, mean plasma
[8] = mouse, po, 30 mg/kg, p.o., single dose, mean plasma
[9] = mouse, po, 30 mg/kg, single dose, mean plasma

Compound: Cn1cnc(Cn2ccc3ccc(CNCc4[nH]c5ccccc5c4[C@H]4NC(=O)c5ccc(O)cc54)cc32)c1 [BI-2852, reference compound]
- pIC50 (KRAS G12C [1]): 6.49

Compound: C=CC(=O)N1CCN(c2cc(OC[C@@H]3CCCN3C)nc3cc(-c4cccc5cccc(Cl)c45)cnc23)C[C@@H]1CC#N [Example 1, 2-((S)-1-Acryloyl-4-(7-(8-chloronaphthalen-1-yl)-2-(((S)-1-methylpyrrolidin-2-yl)methoxy)-1,5-naphthyridin-4-yl)piperazin-2-yl)acetonitrile]
- pIC50 (KRAS G12C [1]): 8.36
- pIC50 (KRAS G12C [2]): 7.42

Compound: C=C(F)C(=O)N1CCN(c2cc(OC[C@@H]3CCCN3C)nc3cc(-c4cccc5cccc(Cl)c45)cnc23)C[C@@H]1CC#N [Example 2, 2-((S)-4-(7-(8-Chloronaphthalen-1-yl)-2-(((S)-1-methylpyrrolidin-2-yl)methoxy)-1,5-naphthyridin-4-yl)-1-(2-fluoroacryloyl)piperazin-2-yl)acetonitrile]
- pIC50 (KRAS G12C [2]): 6.89

Compound: CC(=O)c1c(F)ccc2cc(O)cc(-c3cnc4c(N5C[C@H]6CC[C@@H](C5)N6)cc(OC[C@@]56CCCN5C[C@H](F)C6)nc4c3)c12 [Example 3, 1-(8-(8-((1R,5S)-3,8-Diazabicyclo[3.2.1]octan-3-yl)-6-(((2R,7aS)-2-fluorotetrahydro-1H-pyrrolizin-7a(5H)-yl)methoxy)-1,5-naphthyridin-3-yl)-2-fluoro-6-hydroxynaphthalen-1-yl)ethan-1-one]
- pIC50 (KRAS G12D): 5.82

Compound: Oc1cc(-c2cnc3c(N4C[C@H]5CC[C@@H](C4)N5)cc(OCC45CCCN4CCC5)nc3c2)c2ccccc2c1 [Example 4, 4-(8-((1R,5S)-3,8-Diazabicyclo[3.2.1]octan-3-yl)-6-((tetrahydro-1H-pyrrolizin-7a(5H)-yl)methoxy)-1,5-naphthyridin-3-yl)naphthalen-2-ol]
- pIC50 (KRAS G12D): 6.00

Compound: C=CC(=O)N1CCN(c2cc(OCC34CCCN3CCC4)nc3cc(-c4cccc5cccc(Cl)c45)cnc23)C[C@@H]1CC#N [Example 5, (S)-2-(1-acryloyl-4-(7-(8-chloronaphthalen-1-yl)-2-((tetrahydro-1H-pyrrolizin-7a(5H)-yl)methoxy)-1,5-naphthyridin-4-yl)piperazin-2-yl)acetonitrile]
- pIC50 (KRAS G12C [1]): > 9.30
- pIC50 (KRAS G12C [2]): 7.42
- pIC50 (MIA PaCa-2 cells): 5.54
- AUCExtra [3, 4]: 2.52%
- AUMCExtra [3, 4]: 14.3%
- Tlast [3, 4]: 8.00 h
- AUCExtra [3, 5]: 0.315%
- AUMCExtra [3, 5]: 1.85%
- Tlast [3, 5]: 24.0 h
- MRT inf [3, 6]: 1.77 h
- MRT last [3, 6]: 1.56 h
- Vd ([3]; mouse, iv, 3 mg/kg, i.v., single dose, mean plasma, read-out: Vdss): 7.7 L/kg
- AUC(0-inf) [3, 7]: 691 ng·h/mL
- AUC(0-t) [3, 7]: 673 ng·h/mL
- C0 [3, 7]: 800 ng/mL
- clearance [3, 7]: 72.4 mL/min/kg
- half-life [3, 7]: 1.42 h
- bioavailability ([3]; mouse, plasma, oral, 30 mg/kg, p.o., single dose vs 3 mg/kg i.v.): 21.7%
- MRT inf [3, 8]: 4.79 h
- MRT last [3, 8]: 4.72 h
- AUC(0-inf) [3, 9]: 1500 ng·h/mL
- AUC(0-t) [3, 9]: 1500 ng·h/mL
- Cmax [3, 9]: 249 ng/mL
- Tmax [3, 9]: 1 h
- half-life [3, 9]: 2.85 h

Compound: C=C(F)C(=O)N1CCN(c2cc(OCC34CCCN3CCC4)nc3cc(-c4cccc5cccc(Cl)c45)cnc23)C[C@@H]1CC#N [Example 6, (S)-2-(4-(7-(8-chloronaphthalen-1-yl)-2-((tetrahydro-1H-pyrrolizin-7a(5H)-yl)methoxy)-1,5-naphthyridin-4-yl)-1-(2-fluoroacryloyl)piperazin-2-yl)acetonitrile]
- pIC50 (KRAS G12C [1]): 6.48
- pIC50 (KRAS G12C [2]): 7.23

Compound: C=CC(=O)N1CCN(c2cc(OC[C@@]34CCCN3C[C@H](F)C4)nc3cc(-c4cccc5cccc(Cl)c45)cnc23)C[C@@H]1CC#N [Example 7, 2-((S)-1-acryloyl-4-(7-(8-chloronaphthalen-1-yl)-2-(((2R,7aS)-2-fluorotetrahydro-1H-pyrrolizin-7a(5H)-yl)methoxy)-1,5-naphthyridin-4-yl)piperazin-2-yl)acetonitrile]
- pIC50 (KRAS G12C [2]): 7.51

Compound: C=C(F)C(=O)N1CCN(c2cc(OC[C@@]34CCCN3C[C@H](F)C4)nc3cc(-c4cccc5cccc(Cl)c45)cnc23)C[C@@H]1CC#N [Example 8, 2-((S)-4-(7-(8-chloronaphthalen-1-yl)-2-(((2R,7aS)-2-fluorotetrahydro-1H-pyrrolizin-7a(5H)-yl)methoxy)-1,5-naphthyridin-4-yl)-1-(2-fluoroacryloyl)piperazin-2-yl)acetonitrile]
- pIC50 (KRAS G12C [2]): 7.19

Compound: CN[C@@H]1C[C@H]2O[C@@](C)([C@@H]1OC)n1c3ccccc3c3c4c(c5c6ccccc6n2c5c31)C(=O)NC4 [Staurosporine, staurosporine, reference compound]
- pIC50 (MIA PaCa-2 cells): 6.60
